# According to patent US6777428B1, “5-HT1f agonist” (Eli Lilly and Company, priority 1999, dated 2004):
# Counter-ions that a name gives are not always drawn.
row,SMILES,melting point [°C]
1,Cl.Nc1cccc(C(=O)C2CCNCC2)c1,208 to 210
2,O=C(Nc1cccc(C(=O)C2CCNCC2)c1)c1ccc(F)cc1 (as salt: hydrochloride),> 225
3,CN1CCC(C(=O)c2cccc(NC(=O)c3ccco3)c2)CC1 (as salt: hydrochloride),> 200
4,CN1CCC(C(=O)c2cccc(NC(=O)c3ccncc3)c2)CC1 (as salt: hydrochloride),> 200

# Next, values leading:
row,melting point [°C],SMILES
1,> 250,CN1CCC(C(=O)c2cccc(NC(=O)c3ccc(F)cc3I)c2)CC1.Cl
2,181 to 183,CN1CCC(C(=O)c2cccc(NC(=O)c3ccc(F)cc3F)c2)CC1 (as salt: hydrochloride)
3,> 200,CN1CCC(C(=O)c2cccc(NC(=O)c3ccc(O)cc3)c2)CC1 (as salt: hydrochloride)
